The values below come from paper PMC7471006, “A Simplified Quantitative Real-Time PCR Assay for Monitoring SARS-CoV-2 Growth in Cell Culture” (mSphere, 2020).

pIC50: −log10 of the molar value. Like-named read-outs stand apart in the source and are kept apart here.

For one data set, the system named is SARS-CoV-2. Description: SYBR green-based qRT-PCR of SARS-CoV-2 RNA in supernatants of infected Vero E6 cells (compound screen). Type of data set: cell-based. The following applies: for Effect on SARS-CoV-2 viral RNA in supernatants / SARS-CoV-2 replication: MOI 0.01, 24 hpi, result in words. (In general: In qPCR the cycle at which signal appears reflects the starting amount.)

The subject of data set [1] is Vero E6 cells.
Data set [2] concerns Vero E6 cells. Description: RealTime-Glo MT cell viability assay (compound cytotoxicity). The conditions noted are these: parallel plates, result in words.
[3] abbreviates: Severe acute respiratory syndrome coronavirus 2, Vero C1008, MOI 0.01, 24 hpi, read-out: IC50 (50% inhibitory concentration), SARS-CoV-2 viral RNA in supernatants.

As for `Cc1nc2ccc(Br)cc2c(-c2ccc(Cl)cc2)c1C(OC(C)(C)C)C(=O)O` (stereo not shown) [ALLINI-2], in the data set on SARS-CoV-2, the “Effect on SARS-CoV-2 viral RNA in supernatants / SARS-CoV-2 replication” value is on record as “modestly inhibited”. The Compound cytotoxicity entry with Vero E6 cells [1] is listed as “without apparent cytotoxicity”.

Turning to `CCN(c1nc(N)c(C(=O)NC(=N)N)nc1Cl)C(C)C` [EIPA, ethylisopropylamiloride], in the data set with SARS-CoV-2, the “Effect on SARS-CoV-2 viral RNA in supernatants / SARS-CoV-2 replication” value was “substantially decreased viral RNA in supernatants at subcytotoxic levels”.

As for `CC(C)CN(C[C@@H](O)[C@H](Cc1ccccc1)NC(=O)O[C@H]1CCOC1)S(=O)(=O)c1ccc(N)cc1` [amprenavir], the “Effect on SARS-CoV-2 viral RNA in supernatants / SARS-CoV-2 replication” value with SARS-CoV-2 is on record as “modestly inhibited”. Further, the Compound cytotoxicity result with Vero E6 cells [2] is on record as “without apparent cytotoxicity”.

Regarding `Cc1cccc(/C=N/Nc2cc(N3CCOCC3)nc(OCCc3ccccn3)n2)c1` [apilimod], in the data set with SARS-CoV-2 (48 hpi, data not shown), the “Potency on SARS-CoV-2 viral RNA in supernatants compared with 24 hpi” value is reported as “less potent”. Besides, the “Effect on SARS-CoV-2 viral RNA in supernatants / SARS-CoV-2 replication” value with SARS-CoV-2 was “substantially decreased”. For the same compound, the pIC50 in the data set on SARS-CoV-2 (setting [3]) is 7.92. In addition, the Compound cytotoxicity result in the data set with Vero E6 cells [1] is recorded as “minimal cytotoxicity”.

For the compound `Cc1ccnc2c1NC(=O)c1cccnc1N2C1CC1` [nevirapine], in the data set with SARS-CoV-2, the “Effect on SARS-CoV-2 viral RNA in supernatants / SARS-CoV-2 replication” value was “modestly inhibited”. Further, the Compound cytotoxicity result in the data set with Vero E6 cells [2] is given as “without apparent cytotoxicity”.

Regarding `CCC(CC)COC(=O)[C@H](C)N[P@](=O)(OC[C@H]1O[C@@](C#N)(c2ccc3c(N)ncnn23)[C@H](O)[C@@H]1O)Oc1ccccc1` [remdesivir], in the data set with SARS-CoV-2, the “Effect on SARS-CoV-2 viral RNA in supernatants / SARS-CoV-2 replication” value is reported as “substantially decreased”. In addition, the IC50 in the data set with SARS-CoV-2 (setting [3]) was found to be 2.8 µg/mL.
